By Emax is commonly meant the maximal effect, on the per cent scale that the assay sets. One may read the DC50 as the concentration at which degradation of the target reaches its halfway point.

SMILES strings stand for the structures. Changes are numbered by the printed parent chain.

One experiment has as its target T1, RET(KD: 658-1114 G810R) (Homo sapiens, UniProt P07949, G810R).
T1 construct: 658-1114; expressed in transfected cells; host or cells: 293T.165 (293T cells, generated in-house)
T1 sequence (P07949 658-1114 G810R): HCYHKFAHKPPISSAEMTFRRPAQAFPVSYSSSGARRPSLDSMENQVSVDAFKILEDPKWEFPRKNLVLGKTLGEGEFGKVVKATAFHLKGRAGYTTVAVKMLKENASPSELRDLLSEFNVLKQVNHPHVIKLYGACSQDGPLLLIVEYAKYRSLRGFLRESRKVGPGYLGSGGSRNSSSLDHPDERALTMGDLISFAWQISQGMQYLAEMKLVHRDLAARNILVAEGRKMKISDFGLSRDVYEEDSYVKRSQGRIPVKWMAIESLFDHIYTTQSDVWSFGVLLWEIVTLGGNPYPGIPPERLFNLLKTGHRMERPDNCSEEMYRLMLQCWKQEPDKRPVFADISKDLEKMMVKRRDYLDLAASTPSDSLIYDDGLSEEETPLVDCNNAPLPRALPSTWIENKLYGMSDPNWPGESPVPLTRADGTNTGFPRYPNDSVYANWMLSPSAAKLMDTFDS
Put plainly: HiBiT-Degradation, RET G810R degradation assay (Nano-Glo HiBiT Lytic), 293T.165 cells. The settings on record: for Emax / DC50: 6.0 hours; for Emax: % remaining protein, read-out: 293T.165 RET(KD: 658-1114 G810R) 6.0 hours (Emax); for DC50: half-maximal degradation concentration, read-out: 293T.165 RET(KD: 658-1114 G810R) 6.0 hours (DC50). It counts as cell-based. The gist of the method: (§1)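 Degradation quantified by HiBiT lytic luminescence in 293T cells expressing tagged WT or G810R RET kinase domain after 6 h dosing up to 10 μM; DC50 and Emax fitted.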
For orientation: With HiBiT, luminescence reflects the tagged protein that the partner subunit can reach.

The target of the next experiment is T2, RET (658-1114) (Homo sapiens, UniProt P07949).
T2 construct: 658-1114; expressed in transfected cells; host or cells: 293T.144 (293T cells, generated in-house)
T2 sequence (P07949 658-1114): T1 sequence (P07949 658-1114 G810R) with R153G
Put plainly: HiBiT-Degradation, RET wild-type degradation assay (Nano-Glo HiBiT Lytic), 293T.144 cells. Type of experiment: cell-based. The settings on record: for Emax / DC50: 6.0 hours; for Emax: % remaining protein, read-out: 293T.144 RET (658-1114) 6.0 hours (Emax); for DC50: half-maximal degradation concentration, read-out: 293T.144 RET (658-1114) 6.0 hours (DC50). The essentials:
as §1

With `CC(C)NC(=O)C1(C)CCN(c2ccc(-c3cc(-c4cnn(C5CCC6(CC5)CN(C(=O)CN5CCC(c7ccc(NC8CCC(=O)NC8=O)cc7)CC5)C6)c4)cn4ncc(C#N)c34)cn2)CC1` (stereo not drawn) [Compound 196, 1-(5-(3-cyano-6-(1-(2-(2-(4-(4-((2,6-dioxopiperidin-3-yl)amino)phenyl)piperidin-1-yl)acetyl)-2-azaspiro[3.5]nonan-7-yl)-1H-pyrazol-4-yl)pyrazolo[1,5-a]pyridin-4-yl)pyridin-2-yl)-N-isopropyl-4-methylpiperidine-4-carboxamide], at RET(KD: 658-1114 G810R), the “293T.165 RET(KD: 658-1114 G810R) 6.0 hours (IP) [nM]” value is given as “++++ (<50 nM = ++++)”, the Emax was under 30% and the 50% degradation concentration (DC50) is under 100 nM. In addition, on RET (658-1114), the “293T.144 RET (658-1114) 6.0 hours (IP) [nM]” value (“293T.144 RET” below) is given as “++++ (<50 nM = ++++)”, the Emax was under 30% and the DC50 is under 50 nM.
Take `N#Cc1cnn2cc(-c3cnn(C4CCN(C(=O)CC5(O)CCN(c6ccc(NC7CCC(=O)NC7=O)cc6F)CC5)CC4)c3)cc(-c3ccc(N4CCC(c5ccc(O)cc5)CC4)nc3)c12` (stereo not drawn) [Compound 197, 6-[1-[1-[2-[1-[4-[(2,6-dioxo-3-piperidyl)amino]-2-fluoro-phenyl]-4-hydroxy-4-piperidyl]acetyl]-4-piperidyl]pyrazol-4-yl]-4-[6-[4-(4-hydroxyphenyl)-1-piperidyl]-3-pyridyl]pyrazolo[1,5-a]pyridine-3-carbonitrile]: on RET(KD: 658-1114 G810R), the “293T.165 RET(KD: 658-1114 G810R) 6.0 hours (IP) [nM]” value is on record as “++++ (<50 nM = ++++)”, the Emax is under 30% and the DC50 was under 50 nM. In addition, on RET (658-1114), the “293T.144 RET” value was “++++ (<50 nM = ++++)”, the Emax was under 30% and the DC50 was under 50 nM.
Take `N#Cc1cnn2cc(-c3cnn(C4CCN(C(=O)CC5(O)CCN(c6ccc(NC7CCC(=O)NC7=O)cc6F)CC5)CC4)c3)cc(-c3ccc(N4CCC(c5cccc(O)c5)CC4)nc3)c12` (stereo not drawn) [Compound 198, 6-[1-[1-[2-[1-[4-[(2,6-dioxo-3-piperidyl)amino]-2-fluoro-phenyl]-4-hydroxy-4-piperidyl]acetyl]-4-piperidyl]pyrazol-4-yl]-4-[6-[4-(3-hydroxyphenyl)-1-piperidyl]-3-pyridyl]pyrazolo[1,5-a]pyridine-3-carbonitrile]: at RET(KD: 658-1114 G810R), the “293T.165 RET(KD: 658-1114 G810R) 6.0 hours (IP) [nM]” value is “++++ (<50 nM = ++++)”, the Emax is under 30% and the DC50 is under 50 nM. Besides, at RET (658-1114), the “293T.144 RET” value was “++++ (<50 nM = ++++)”, the Emax is under 30% and the DC50 is under 50 nM.
Regarding `CCC1(C(=O)NC(C)C)CCN(c2ccc(-c3cc(-c4cnn(C5CC6(C5)CN(C5CCN(c7ccc(NC8CCC(=O)NC8=O)cc7F)CC5)C6)c4)cn4ncc(C#N)c34)cn2)CC1` (stereo not drawn) [Compound 199, 1-(5-(3-cyano-6-(1-(2-(1-(4-((2,6-dioxopiperidin-3-yl)amino)-2-fluorophenyl)piperidin-4-yl)-2-azaspiro[3.3]heptan-6-yl)-1H-pyrazol-4-yl)pyrazolo[1,5-a]pyridin-4-yl)pyridin-2-yl)-4-ethyl-N-isopropylpiperidine-4-carboxamide], at RET(KD: 658-1114 G810R), the “293T.165 RET(KD: 658-1114 G810R) 6.0 hours (IP) [nM]” value is “+++ (<100 nM = +++)”, the Emax is under 30% and the DC50 is under 50 nM. Further, at RET (658-1114), the “293T.144 RET” value is listed as “++++ (<50 nM = ++++)”, the Emax was under 30% and the DC50 was under 50 nM.
For `COc1cc(N2CCN(C3CCC(n4cc(-c5cn6ncc(C#N)c6c(-c6ccc(N7CC8COCC(C7)N8Cc7ccccn7)nc6)n5)cn4)CC3)CC2)c(F)cc1NC1CCC(=O)NC1=O` (stereo not drawn) [Compound 205, 6-[1-[4-[4-[4-[(2,6-dioxo-3-piperidyl)amino]-2-fluoro-5-methoxy-phenyl]piperazin-1-yl]cyclohexyl]pyrazol-4-yl]-4-[6-[9-(2-pyridylmethyl)-3-oxa-7,9-diazabicyclo[3.3.1]nonan-7-yl]-3-pyridyl]pyrazolo[1,5-a]pyrazine-3-carbonitrile], at RET(KD: 658-1114 G810R), the “293T.165 RET(KD: 658-1114 G810R) 6.0 hours (IP) [nM]” value was “+++ (<100 nM = +++)”, the Emax was under 30% and the DC50 is under 100 nM. In addition, at RET (658-1114), the “293T.144 RET” value is “++++ (<50 nM = ++++)”, the Emax was under 30% and the DC50 was under 50 nM.
Consider `COc1ccc(CN2C3COCC2CN(c2ccc(-c4nc(-c5cnn(C6CCC(N7CCC(c8ccc(NC9CCC(=O)NC9=O)cc8Cl)CC7)CC6)c5)cn5ncc(C#N)c45)cn2)C3)cn1` (stereo not drawn) [Compound 206, 6-[1-[4-[4-[2-chloro-4-[(2,6-dioxo-3-piperidyl)amino]phenyl]-1-piperidyl]cyclohexyl]pyrazol-4-yl]-4-[6-[9-[(6-methoxy-3-pyridyl)methyl]-3-oxa-7,9-diazabicyclo[3.3.1]nonan-7-yl]-3-pyridyl]pyrazolo[1,5-a]pyrazine-3-carbonitrile], for which, on RET(KD: 658-1114 G810R), the “293T.165 RET(KD: 658-1114 G810R) 6.0 hours (IP) [nM]” value was “++++ (<50 nM = ++++)”, the Emax was under 30% and the DC50 was under 100 nM. Also, on RET (658-1114), the “293T.144 RET” value was “++++ (<50 nM = ++++)”, the Emax is under 30% and the DC50 is under 50 nM.
Consider `CCC1(C(=O)NC[C@H]2C[C@H](F)C2)CCN(c2ccc(-c3nc(-c4cnn([C@H]5CC[C@H](N6CCN(c7ccc(NC8CCC(=O)NC8=O)cc7F)CC6)CC5)c4)cn4ncc(C#N)c34)cn2)CC1` (stereo partly drawn) [Compound 207, 1-[5-[3-cyano-6-[1-[4-[4-[4-[(2,6-dioxo-3-piperidyl)amino]-2-fluoro-phenyl]piperazin-1-yl]cyclohexyl]pyrazol-4-yl]pyrazolo[1,5-a]pyrazin-4-yl]-2-pyridyl]-4-ethyl-N-[(3-fluorocyclobutyl)methyl]piperidine-4-carboxamide], for which, at RET(KD: 658-1114 G810R), the “293T.165 RET(KD: 658-1114 G810R) 6.0 hours (IP) [nM]” value is on record as “++++ (<50 nM = ++++)”, the Emax was under 30% and the DC50 is under 50 nM. Also, on RET (658-1114), the “293T.144 RET” value is reported as “++++ (<50 nM = ++++)”, the Emax was under 30% and the DC50 was under 50 nM.
Consider `Cn1nc(N2CCC(=O)NC2=O)c2ccc(N3CCN([C@H]4CC[C@H](n5cc(-c6cn7ncc(C#N)c7c(-c7ccc(N8C[C@H]9COC[C@@H](C8)N9Cc8ccccn8)nc7)n6)cn5)CC4)CC3)c(F)c21` [Compound 208, 6-[1-[4-[4-[3-(2,4-dioxohexahydropyrimidin-1-yl)-7-fluoro-1-methyl-indazol-6-yl]piperazin-1-yl]cyclohexyl]pyrazol-4-yl]-4-[6-[(1S,5R)-9-(2-pyridylmethyl)-3-oxa-7,9-diazabicyclo[3.3.1]nonan-7-yl]-3-pyridyl]pyrazolo[1,5-a]pyrazine-3-carbonitrile], for which, at RET(KD: 658-1114 G810R), the “293T.165 RET(KD: 658-1114 G810R) 6.0 hours (IP) [nM]” value was “++++ (<50 nM = ++++)”, the Emax was under 30% and the DC50 was under 100 nM. On RET (658-1114), the “293T.144 RET” value is given as “++++ (<50 nM = ++++)”, the Emax is under 30% and the DC50 is under 50 nM.
As for `COc1cc(N2CCN([C@H]3CC[C@H](n4cc(-c5cn6ncc(C#N)c6c(-c6ccc(N7C[C@@H]8C[C@@](C)(NC(=O)c9ncccc9Cl)C[C@@H]8C7)nc6)n5)cn4)CC3)CC2)c(F)cc1NC1CCC(=O)NC1=O` (stereo partly drawn) [Compound 209, N-[(3aR,6aS)-2-[5-[3-cyano-6-[1-[4-[4-[4-[(2,6-dioxo-3-piperidyl)amino]-2-fluoro-5-methoxy-phenyl]piperazin-1-yl]cyclohexyl]pyrazol-4-yl]pyrazolo[1,5-a]pyrazin-4-yl]-2-pyridyl]-5-methyl-1,3,3a, 4,6,6a-hexahydrocyclopenta[c]pyrrol-5-yl]-3-chloro-pyridine-2-carboxamide], on RET(KD: 658-1114 G810R), the “293T.165 RET(KD: 658-1114 G810R) 6.0 hours (IP) [nM]” value is “++++ (<50 nM = ++++)”, the Emax is under 30% and the DC50 was under 100 nM. On RET (658-1114), the “293T.144 RET” value is “++++ (<50 nM = ++++)”, the Emax was under 30% and the DC50 is under 50 nM.

For the origin of these results see patent publication US12661410B2, “Compounds for targeted degradation of RET” (C4 Therapeutics, Inc., priority 2020, dated 2026).
